Experiments:
mOat1 = molecular target: T1, mOat1 (Mus musculus, UniProt Q8VC69); test: Three-point uptake (substrate assessment) in mOat1-overexpressing HEK293 cells; type: in vitro ADME; details: 10 μM compound, 100 μM probenecid, 1 and 5 min
T1 construct: expressed in transfected cells; host or cells: HEK293
T1 sequence (Q8VC69 1-545): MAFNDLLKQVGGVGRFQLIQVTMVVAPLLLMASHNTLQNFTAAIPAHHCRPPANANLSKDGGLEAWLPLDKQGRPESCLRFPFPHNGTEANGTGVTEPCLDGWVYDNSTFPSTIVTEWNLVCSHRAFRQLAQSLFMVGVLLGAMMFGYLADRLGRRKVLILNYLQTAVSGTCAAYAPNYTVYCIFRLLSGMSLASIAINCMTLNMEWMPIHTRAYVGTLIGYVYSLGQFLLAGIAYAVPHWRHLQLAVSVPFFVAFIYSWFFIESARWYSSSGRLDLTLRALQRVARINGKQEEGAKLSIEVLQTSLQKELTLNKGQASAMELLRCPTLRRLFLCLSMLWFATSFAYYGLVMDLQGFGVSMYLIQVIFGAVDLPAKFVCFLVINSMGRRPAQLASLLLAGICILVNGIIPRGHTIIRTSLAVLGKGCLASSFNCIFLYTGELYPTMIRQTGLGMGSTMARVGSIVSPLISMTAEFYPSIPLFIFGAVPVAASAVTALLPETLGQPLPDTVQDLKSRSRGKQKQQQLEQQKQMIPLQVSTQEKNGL
Procedure: This is important to gain a better understanding of the underlying mechanisms of secretion into urine. Therefore, we assessed the amount of compound taken up by the vector and transporter cells at three different concentrations (1, 10, and 100 μM for mOat1 and mOct1; 0.1, 1, and 10 μM for mOat3) and at two different incubation periods (1 and 5 min for mOat1 and mOct1; 5 and 10 min for mOat3).
The incubation buffer contained CHD and CDCHD in a final concentration of 1, 10, and 100 μM. After 1 and 5 min, the incubation was terminated. In addition, the probe inhibitor probenecid (100 μM) was added in one concentration to 10 μM CHD and CDCHD, respectively, and after 1 and 5 min, the incubation was stopped. Inhibition of mOat1-mediated ^3H-PAH (10 μM) uptake by 100 μM probenecid was performed as a control experiment. After 1 min, the incubation was terminated. […]
First, a calibration curve was prepared by spiking different concentrations of CHD and CDCHD into the cell matrix. […] Samples were analyzed using an Agilent 1290 Infinity II HPLC system coupled to an AB Sciex QTrap6500plus mass spectrometer. […]
For statistical testing of differences in uptake ratio or for the inhibitory effect, an ordinary one-way ANOVA test was performed using GraphPad Prism 9.5.1 software. […] Michaelis–Menten kinetics were determined using the Michaelis–Menten algorithm of GraphPad Prism 9.5.1 software. […]

[1] = parameters: method as in PMID 339024; details: phase II clinical trial, 1970s; cited from earlier work
[2] = parameters: method as in PMID 38047701; details: 15 mg/kg IV; up to 8 h post administration; cited from earlier work

In the case of CC(=O)C1=C(O)[C@@H](N)[C@H]2Cc3c(c(O)c4c(O)c(C)ccc4c3C)C(=O)[C@@]2(O)C1=O [CHD, chelocardin], the “uptake ratio (cells without vs with probenecid), mOat1” value (mOat1) is listed as less than 1, the concentrations in urine [1] is listed as 11000 to 14000 ng/mL and the plasma concentrations [1] is listed as 1000 to 3000 ng/mL. For the same compound, the “urine levels of CHD compared to CDCHD” value [2] was 10 fold.

— article PMC11249637, “Interaction of the Atypical Tetracyclines Chelocardin and Amidochelocardin with Renal Drug Transporters” (ACS Pharmacology & Translational Science, 2024)
